For series [1], the system named is RBL-2H3. As to the kind of experiment: Influence of VGS mutations on surface expression of human HTR1B in RBL-2H3 cells, flow cytometry after magnetic bead separation (Example 4). The format is cell-based. To be noted: for Percentage of positive cells after selection (range) / Median fluorescence intensity of positive cells, x-median (range): human HTR1B, MoMLV5′LTR promoter, RBL-2H3, triplicate; for Percentage of positive cells after selection (range): magnetic bead separated. From the text:
Vectors were developed for stable expression of human HTR1B without the methionine at position 1 in mammalian cells under the control of Moloney Leukaemia virus 5′-LTR promoter (MoMLV5′LTR, SEQ ID NO: 6). All vectors had the neomycin resistance gene for selection of stable eukaryotic cells and mouse immunoglobulin kappa signal peptide followed by a c-myc tag (EQKLISEEDLN peptide). Vectors included no VGS, native VGS or two VGS mutants (VGS mutant 1 and VGS mutant 2). This experiment was designed to test if serine and threonine at VGS which represent potential […] glycosylation sites are the molecular determinants of improved surface expression. In VGS mutant 1 all 5 serine and threonine were mutated to alanine while in VGS mutant 2 all serine were mutated and 2 threonines were still present.
Each vector was individually electroporated by triplicate using a microporator (Digital Bio Technology, South Korea) into RBL-2H3 and after 48 hours neomycin at 500 ug/mL was added to culture for selection. After selection for about 2 weeks cells were analysed by flow cytometry (Guava Technologies, USA) with anti-cmyc tag antibody (anti-cmyc-FITC, clone 9E10, Sigma-Aldrich, USA) for surface expression. Selected cells were separated by using magnetic beads from Miltenyi and anti-cmyc tag. Results were expressed as percentage of positive cells after subtraction of values from non transfected RBL-2H3 cells incubated with the same anti-cmyc tag antibody. For positive cells median fluorescence intensity (x-median) was taken as a marker of surface receptor density on the surface of positive cells.
Background: Flow cytometry measures light scatter and fluorescence of single cells or particles in a stream.

Series [2] deals with HEK293 cells. The series is described as follows: Surface expression of human HTR1B in stably transfected HEK293 cells, flow cytometry with anti-cmyc tag antibody (Example 3). Type of series: cell-based. To be noted: HEK293, MoMLV5′LTR promoter. From the text:
Vectors were developed for stable expression of GPCRs in mammalian cells under the control of the following promoters: Moloney Leukaemia virus 5′-LTR (MoMLV5′LTR, SEQ ID NO: 6), human phosphoglycerate kinase promoter (SEQ ID NO: 4) and human elongation factor 1 alpha promoter (hEF1alpha, SEQ ID NO: 3). All vectors had the neomycin resistance gene for selection of stable eukaryotic cells, mouse immunoglobulin kappa signal peptide followed by a c-myc tag (EQKLISEEDLN peptide), a sequence derived from a heterologous viral-GPCR (VGS, SEQ ID NO: 2) and the entire human HTR1B without the methionine at position 1. Such heterologous viral-GPCR derived sequence was included to test if surface expression is improved by certain heterologous viral-GPCR derived sequences in non-hematopoietic cell lines. […] After selection for about 2 weeks cells were analysed by flow cytometry (Guava Technologies, USA) with anti-cmyc tag antibody (anti-cmyc-FITC, clone 9E10, Sigma-Aldrich, USA) for surface expression. Results were expressed as percentage of positive cells after subtraction of values from non transfected HEK293 cells incubated with the same anti-cmyc tag antibody. […] For positive cells mean fluorescence intensity (MFI) was taken as a marker of surface receptor density on the surface of positive cells.

For series [3], the system named is BW5147.G.1.4.ovar.1. The series is described as follows: Surface expression of HT1BR in stably transfected BW5147 cells, flow cytometry with anti-cmyc tag antibody (Example 2). Type of series: cell-based, mouse. To be noted: MoMLV5′LTR promoter. From the text: (§1) Vectors were developed for stable expression of GPCRs in hematopoietic cells without professional regulated exocytosis under the control of Moloney Leukaemia virus 5′-LTR (MoMLV5′LTR, SEQ ID NO: 6), a good promoter for expression of GPCRs tested previously for more than 20 different GPCRs. The vector had neomycin resistance gene for selection of stable eukaryotic cells, mouse immunoglobulin kappa signal peptide followed by a c-myc tag (EQKLISEEDLN peptide) and the entire HT1BR GPCR without the methionine at position 1. This GPCR is a prototype of a receptor that it is difficult to be expressed into RBL-2H3. Two vectors were developed: one with a heterologous viral-GPCR derived sequence (VGS) and one without VGS. Each vector was individually electroporated using a microporator (Digital Bio Technology, South Korea) into WEHI-3B, a mouse myelomonocytic leukaemia cell line (DSMZ, ACC26) and into BW5147.G.1.4.ovar.1, a mouse lymphoma T cell line (HPA cultures, Cat. No. 88100507) and after 48 hours neomycin was added to culture for selection. After selection for about 2 weeks cells were analysed by flow cytometry (Guava Technologies, USA) with anti-cmyc tag antibody (anti-cmyc-FITC, clone 9E10, Sigma-Aldrich, USA) for surface expression.

The test system of series [4] is WEHI-3B. The series is described as follows: Surface expression of HT1BR in stably transfected WEHI-3B cells, flow cytometry with anti-cmyc tag antibody (Example 2). The format is cell-based, mouse.
Excerpt: as §1

The source of these data is patent US9499584B2, “GPCR with improved cell surface expression” (CANVAX BIOTECH S.L, priority 2012, dated 2016).

For the substance “LAAMAPGATVGT [VGS mutant 2, all serine mutated, 2 threonines still present]”, the “Reduction of median fluorescence intensity versus native VGS” value in series [1] (RBL-2H3, MoMLV5′LTR promoter) was found to be 1.43 fold. In addition, in series [1], the “Percentage of positive cells after selection (range)” value (shortened to “Percentage … after selection (range)”) was 49.2 (48.2-50.2) %.

For LSTMAPGSTVGT [VGS native], the “Increase of median fluorescence intensity of positive cells versus no VGS” value in series [1] (RBL-2H3, MoMLV5′LTR promoter) is on record as 2.6 fold. In series [1], the “Median fluorescence intensity of positive cells, x-median (range)” value (“Median fluorescence intensity … (range)” for short) is listed as 89.3 (87.7-90.9) and the “Percentage … after selection (range)” value is recorded as 50.2 (49.2-51.1) %. For the same substance, in series [1] (listed as native VGS), the “Percentage … after selection (range)” value was 50% and the “Median fluorescence intensity … (range)” value worked out at 89.3.

On to “VGS: Heterologous viral-GPCR derived sequence (VGS, SEQ ID NO: 2) added at the amino terminus of the GPCR (CTGAGCACAATGGCCCCAGGCTCCACCGTGGGAACA; expressed or natural sequence)”, for which the “Improvement of percentage of positive cells by inclusion of VGS” value in series [2] was 2.7 fold. Also, the “Ratio of percentage of cells with surface expression with VGS versus without” value in series [3] is reported as “about 15 times”. Further, in series [4] (HT1BR, WEHI 3B cells, about 2 weeks neomycin selection), the “Percentage of positive cells after selection” value was “about 50%”. Besides, the “Ratio of percentage of positive cells with VGS versus without” value in series [4] (WEHI-3B cells, MoMLV5′LTR promoter) is on record as 1.6 times.

On to “LAAMAPGAAVGA [VGS mutant 1, all 5 serine and threonine mutated to alanine]”, for which, in series [1], the “Median fluorescence intensity … (range)” value is 45.6 (44.9-46.2) and the “Percentage … after selection (range)” value is on record as 49.1 (47.5-50.7) %.
